Data reported in patent US20250177383A1, “DI-CYCLOPROPYL BASED IL-17A MODULATORS AND USES THEREOF” (DICE ALPHA, INC., priority 2022, published 2025).

What was measured:
IL-17A/A = target: T1, IL-17A/A (Homo sapiens, UniProt Q16552); assay: IL-17A/A HEK-Blue Cell Assay; format: cell-based; settings: HEK-Blue IL-17 reporter cells, IL-17A/A stimulation, 20 hours, SEAP readout; for IC50: read-out: IL17 AA HEK-5 pIC50 (converted)
T1 sequence (Q16552 24-155): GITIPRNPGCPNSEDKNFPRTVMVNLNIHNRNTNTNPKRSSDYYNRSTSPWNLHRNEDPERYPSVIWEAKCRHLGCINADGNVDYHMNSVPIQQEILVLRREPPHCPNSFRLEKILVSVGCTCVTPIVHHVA
Procedure: (§1) The HEK-Blue IL-17 reporter cell line (Fisher #NC1408637) was used for cell-based IL-17A/A inhibition assays. Cells were grown and prepared for assays according to the manufacturer's instructions. This cell line consists of HEK 293 cells that were designed to expressed IL-17R^A, IL-17R^C, and the ActI adapter molecule, the combination of which, when stimulated by IL-17A/A activates a NFκB promoter and drives expression of a recombinant Secreted Alkaline Phosphatase (SEAP) protein. Media from the cells is then added to a development reagent (Quanti-Blue Substrate, Fisher #NC9711613), and read at A630.
(§2) Compounds were titrated in DMSO, with a top final compound concentration of 10 uM and added to the cells immediately before adding IL-17A/A (Genscript #Z03228). The cells, compound, and IL-17A/A were then incubated for 20 hours before media was removed for SEAP analysis. The resulting inhibition curve was then analyzed using a Dotmatics screening protocol, and IC50 values were determined using a 4-parameter nonlinear fit. DMSO was added to a universal final concentration of 0.1% to optimize background. IL-17A/A inhibition data is provided in Table 1 for selected compounds.

IL-17A/F = target: T2, IL-17A/F (Homo sapiens, UniProt Q16552+Q96PD4); assay: IL-17A/F HEK-Blue Cell Assay; format: cell-based; settings: HEK-Blue IL-17 reporter cells, IL-17A/F stimulation, 20 hours, SEAP readout; for IC50: read-out: IL17AF HEK Blue pIC50 (converted)
T2 sequence (Q16552 24-155): T1 sequence (Q16552 24-155)
T2 sequence (Q96PD4 31-163): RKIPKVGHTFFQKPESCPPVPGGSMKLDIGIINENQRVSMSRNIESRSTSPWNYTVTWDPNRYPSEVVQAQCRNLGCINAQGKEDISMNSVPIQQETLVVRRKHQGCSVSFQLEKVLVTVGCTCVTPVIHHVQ
Procedure: as §1, with “cell-based IL-17A/F” for “cell-based IL-17A/A”, “expressed IL-17RA,” for “expressed IL-17R^A,”, “(SEAP) geneprotein.” for “(SEAP) protein.”
as §2, with “DMSO” for “DMSO, with a top final compound concentration of 10 uM”, “(Custom from R&D systems, untagged IL-17A/F+BSA as a carrier protein).” for “(Genscript #Z03228).”, “background.” for “background. IL-17A/A inhibition data is provided in Table 1 for selected compounds.”

Row | IC50 (IL-17A/A) | IL17AF HEK Blue pIC50 (IL-17A/F) | IC50 (IL-17A/F) | IL17 AA HEK-5 pIC50 (IL-17A/A) | Structure (SMILES)
1 | 10 to 100 nM | – | 100 to 10000 nM | – | CCOC(C)C(=O)N[C@@H](C(=O)N1CCN(C)[C@H](C)C1)[C@@H](C)c1ccc(NC(=O)[C@@H](NC(=O)c2ccnn2CC)C(C2CC2)C2CC2)c(F)c1 (single isomer, unassigned) [Compound 320]
2 | < 10 nM | – | 10 to 100 nM | – | CCOC(C)C(=O)N[C@@H](C(=O)N1CCN(C)[C@H](C)C1)[C@@H](C)c1ccc(NC(=O)[C@@H](NC(=O)c2ccnn2CC)C(C2CC2)C2CC2)c(F)c1 (single isomer, unassigned) [Compound 323]
3 | < 10 nM | – | 10 to 100 nM | – | CCn1nccc1C(=O)N[C@H](C(=O)Nc1ccc([C@H](C)[C@@H](NC(=O)C(C)CC(F)(F)F)C(=O)N2CCN(C)[C@H](C)C2)cc1F)C(C1CC1)C1CC1 (single isomer, unassigned) [Compound 324]
4 | 10 to 100 nM | – | 100 to 10000 nM | – | CCn1nccc1C(=O)N[C@H](C(=O)Nc1ccc([C@H](C)[C@@H](NC(=O)C(C)C(F)(F)F)C(=O)N2CCN(C)[C@H](C)C2)cc1F)C(C1CC1)C1CC1 (single isomer, unassigned) [Compound 326]
5 | 10 to 100 nM | – | 100 to 10000 nM | – | CCC(OC)C(=O)N[C@@H](C(=O)N1CCN(C)[C@H](C)C1)[C@@H](C)c1ccc(NC(=O)[C@@H](NC(=O)c2ccnn2CC)C(C2CC2)C2CC2)c(F)c1 (single isomer, unassigned) [Compound 335]

The next lines start with the compound.

Row | Structure (SMILES) | IC50 (IL-17A/A) | IL17AF HEK Blue pIC50 (IL-17A/F) | IC50 (IL-17A/F) | IL17 AA HEK-5 pIC50 (IL-17A/A)
6 | CCn1nccc1C(=O)N[C@H](C(=O)Nc1ccc([C@H](C)[C@@H](NC(=O)C(C)OCCOC)C(=O)N2CCN(C)CC2)cc1F)C(C1CC1)C1CC1 (single isomer, unassigned) [Compound 315] | 10 to 100 nM | C (7>C≥5) | – | –
7 | CCn1nccc1C(=O)N[C@H](C(=O)Nc1ccc([C@H](C)[C@@H](NC(=O)C(C)C2CC2)C(=O)N2CCN(C)CC2)cc1F)C(C1CC1)C1CC1 (single isomer, unassigned) [Compound 317] | < 10 nM | – | 10 to 100 nM | –
8 | CCOC(C)C(=O)N[C@@H](C(=O)N1CCN(C)[C@H](C)C1)[C@@H](C)c1ccc(NC(=O)[C@@H](NC(=O)C2(F)CC2)C(C2CC2)C2CC2)c(F)c1 (single isomer, unassigned) [Compound 321] | 10 to 100 nM | – | 100 to 10000 nM | –
9 | CCOC(C)C(=O)N[C@@H](C(=O)N1CCN(C)[C@H](C)C1)[C@@H](C)c1ccc(NC(=O)[C@@H](NC(=O)C2(F)CC2)C(C2CC2)C2CC2)c(F)c1 (single isomer, unassigned) [Compound 322] | < 10 nM | C (7>C≥5) | – | –
10 | CCOC(C)C(=O)N[C@@H](C(=O)N1CCN(C)CC1)[C@@H](C)c1ccc(NC(=O)[C@@H](NC(=O)c2ccnn2CC)C(C2CC2)C2CC2)c(F)c1 (single isomer, unassigned) [Compound 328] | < 10 nM | – | 10 to 100 nM | –
11 | CCOC(C)C(=O)N[C@@H](C(=O)N1CCN(C)CC1)[C@@H](C)c1ccc(NC(=O)[C@@H](NC(=O)c2ccnn2CC)C(C2CC2)C2CC2)c(F)c1 (single isomer, unassigned) [Compound 329] | 10 to 100 nM | – | 100 to 10000 nM | –
12 | CCn1nccc1C(=O)N[C@H](C(=O)Nc1ccc([C@H](C)[C@@H](NC(=O)C(C)CC(F)(F)F)C(=O)N2CCN(C)CC2)cc1F)C(C1CC1)C1CC1 (single isomer, unassigned) [Compound 331] | 10 to 100 nM | – | 100 to 10000 nM | –
13 | CCn1nccc1C(=O)N[C@H](C(=O)Nc1ccc([C@H](C)[C@@H](NC(=O)C(C)CC(F)(F)F)C(=O)N2CCN(C)CC2)cc1F)C(C1CC1)C1CC1 (single isomer, unassigned) [Compound 332] | – | – | 10 to 100 nM | B (8>B≥7 as B)
14 | CCn1nccc1C(=O)N[C@H](C(=O)Nc1ccc([C@H](C)[C@@H](NC(=O)C(C)C(F)(F)F)C(=O)N2CCN(C)CC2)cc1F)C(C1CC1)C1CC1 (single isomer, unassigned) [Compound 333] | 10 to 100 nM | – | 100 to 10000 nM | –
15 | CCC(OC)C(=O)N[C@@H](C(=O)N1CCN(C)[C@H](C)C1)[C@@H](C)c1ccc(NC(=O)[C@@H](NC(=O)C2(F)CC2)C(C2CC2)C2CC2)c(F)c1 (single isomer, unassigned) [Compound 336] | 10 to 100 nM | – | 100 to 10000 nM | –
